Measured values as given in the supplement of paper PMC10627819.

Columns and labels:
[1] = system: S. aureus DSM 20231; assay: fitness (endpoint OD595 vs no drug) (fraction); higher = more growth
Outline: (§1)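 Fitness is computed from the optical density at which cultures reach stationary phase, divided by the robust mean of no-drug control wells. Any value above 1 is set to 1. Cultures started at OD595 0.01 in 384-well plates with TSB, LB Lennox or CY at 37 °C, and OD595 was read every 30 min for 14 h against a first-reading background.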

[2] = system: S. aureus Newman; assay: as above
Outline: as §1

[3] = system: S. pneumoniae D39V; assay: as above
Outline: as §1

[4] = system: B. subtilis 168; assay: Bliss interaction score (quartile over a dose matrix) (fitness difference); higher = more antagonism (negative = synergy)
Outline: (§2)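 Each OD595 reading at entry into stationary phase was scaled to the robust mean of the untreated wells on its plate, with a ceiling of 1. These ratios define fitness, and single-drug fitness was inferred from combinations. The Bliss score compares observed fitness with the product-based expectation and is reported as quartiles across all replicate types, technical, biological and donor/recipient.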

[5] = system: S. aureus DSM 20231; assay: as above
Outline: as §2

[6] = system: S. aureus Newman; assay: as above
Outline: as §2

[7] = system: S. pneumoniae D39V; assay: as above
Outline: as §2

[8] = first compound 0.125 µg/mL, partner 171 µg/mL
[9] = first compound 0.25 µg/mL, partner 171 µg/mL
[10] = first compound 0.5 µg/mL, partner 171 µg/mL
[11] = first compound 0.125 µg/mL, partner 85.5 µg/mL
[12] = first compound 0.125 µg/mL, partner 342 µg/mL
[13] = first compound 0.25 µg/mL, partner 85.5 µg/mL
[14] = first compound 0.25 µg/mL, partner 342 µg/mL
[15] = first compound 0.0625 µg/mL, partner 85.5 µg/mL
[16] = first compound 0.0625 µg/mL, partner 171 µg/mL
[17] = first compound 0.0625 µg/mL, partner 342 µg/mL
[18] = first compound 0.125 µg/mL, partner 0.39 µg/mL
[19] = first compound 0.125 µg/mL, partner 0.78 µg/mL
[20] = first compound 0.125 µg/mL, partner 1.56 µg/mL
[21] = first compound 0.25 µg/mL, partner 0.39 µg/mL
[22] = first compound 0.25 µg/mL, partner 0.78 µg/mL
[23] = first compound 0.25 µg/mL, partner 1.56 µg/mL
[24] = first compound 0.5 µg/mL, partner 0.78 µg/mL
[25] = first compound 0.5 µg/mL, partner 1.56 µg/mL
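For Bliss interaction score (quartile over a dose matrix) in this document: first quartile when negative (synergy) and third quartile when positive (antagonism).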
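For fitness (endpoint OD595 vs no drug) in this document: OD595 on entry to stationary phase over no-drug wells; at most 1.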

CO/N=C(\C(=O)N[C@@H]1C(=O)N2C(C(=O)[O-])=C(C[N+]3(C)CCCC3)CS[C@H]12)c1csc(N)n1 [Cefepime] + CCN(CC)CCOC(=O)c1ccc(N)cc1 [Procaine]
fitness [1, 8]: 0.95
fitness [1, 9]: 0.896
fitness [1, 10]: 0.921
fitness [2, 11]: 0.913
fitness [2, 8]: 0.879
fitness [2, 12]: 0.906
fitness [2, 13]: 0.855
fitness [2, 9]: 0.874
fitness [2, 14]: 0.833
fitness ([2]; first compound 0.5 µg/mL, partner 85.5 µg/mL): 0.801
fitness [2, 10]: 0.699
fitness ([2]; first compound 0.5 µg/mL, partner 342 µg/mL): 0.77
fitness ([3]; first compound 0.007 µg/mL, partner 85.5 µg/mL): ≥ 1
fitness ([3]; first compound 0.007 µg/mL, partner 171 µg/mL): ≥ 1
fitness ([3]; first compound 0.007 µg/mL, partner 342 µg/mL): ≥ 1
fitness ([3]; first compound 0.0078 µg/mL, partner 85.5 µg/mL, one replicate): ≥ 1
fitness ([3]; first compound 0.0078 µg/mL, partner 171 µg/mL, one replicate): ≥ 1
fitness ([3]; first compound 0.0078 µg/mL, partner 342 µg/mL, one replicate): ≥ 1
fitness ([3]; first compound 0.014 µg/mL, partner 85.5 µg/mL): ≥ 1
fitness ([3]; first compound 0.014 µg/mL, partner 171 µg/mL): ≥ 1
fitness ([3]; first compound 0.014 µg/mL, partner 342 µg/mL): 0.999
fitness ([3]; first compound 0.0155 µg/mL, partner 85.5 µg/mL, one replicate): 0.943
fitness ([3]; first compound 0.0155 µg/mL, partner 171 µg/mL, one replicate): ≥ 1
fitness ([3]; first compound 0.0155 µg/mL, partner 342 µg/mL, one replicate): ≥ 1
fitness ([3]; first compound 0.028 µg/mL, partner 85.5 µg/mL): 0.974
fitness ([3]; first compound 0.028 µg/mL, partner 171 µg/mL): 0.948
fitness ([3]; first compound 0.028 µg/mL, partner 342 µg/mL): 0.955
fitness ([3]; first compound 0.031 µg/mL, partner 85.5 µg/mL, one replicate): 0.244
fitness ([3]; first compound 0.031 µg/mL, partner 171 µg/mL, one replicate): 0.481
fitness ([3]; first compound 0.031 µg/mL, partner 342 µg/mL, one replicate): 0.635
Bliss interaction score [4]: 0.0389
Bliss interaction score [5]: -0.0573
Bliss interaction score [6]: -0.0735
Bliss interaction score [7]: 0.0421

CC1(C)S[C@@H]2[C@H](NC(=O)[C@H](N)c3ccc(O)cc3)C(=O)N2[C@H]1C(=O)O [Amoxicillin] + CCN(CC)CCOC(=O)c1ccc(N)cc1 [Procaine]
fitness [1, 15]: 0.455
fitness [1, 16]: 0.523
fitness [1, 17]: 0.523
fitness [1, 11]: 0.423
fitness [1, 8]: 0.478
fitness [1, 12]: 0.495
fitness [1, 13]: 0.0255
fitness ([1]; first compound 0.5 µg/mL, partner 85.5 µg/mL, one replicate): 0.0288
fitness ([1]; first compound 0.5 µg/mL, partner 171 µg/mL, one replicate): 0.0239
fitness ([1]; first compound 0.5 µg/mL, partner 342 µg/mL, one replicate): 0.0199
fitness [2, 15]: 0.862
fitness [2, 16]: 0.875
fitness [2, 17]: 0.861
fitness [2, 8]: 0.847
fitness [2, 12]: 0.861
fitness [2, 9]: 0.841
fitness [2, 14]: 0.811
fitness ([3]; first compound 0.0008 µg/mL, partner 85.5 µg/mL): 1
fitness ([3]; first compound 0.0008 µg/mL, partner 171 µg/mL): 0.989
fitness ([3]; first compound 0.0008 µg/mL, partner 342 µg/mL): 0.942
fitness ([3]; first compound 0.0015 µg/mL, partner 85.5 µg/mL): 0.985
fitness ([3]; first compound 0.0015 µg/mL, partner 171 µg/mL): 0.971
fitness ([3]; first compound 0.0015 µg/mL, partner 342 µg/mL): 0.987
fitness ([3]; first compound 0.003 µg/mL, partner 85.5 µg/mL): 0.918
fitness ([3]; first compound 0.003 µg/mL, partner 171 µg/mL): 0.93
fitness ([3]; first compound 0.003 µg/mL, partner 342 µg/mL): 0.992
fitness ([3]; first compound 0.006 µg/mL, partner 85.5 µg/mL, one replicate): 0.536
fitness ([3]; first compound 0.006 µg/mL, partner 171 µg/mL, one replicate): 0.524
fitness ([3]; first compound 0.006 µg/mL, partner 342 µg/mL, one replicate): 0.519
Bliss interaction score [4]: -0.036
Bliss interaction score [5]: -0.0798
Bliss interaction score [6]: -0.0462
Bliss interaction score [7]: 0.0262

CO/N=C(\C(=O)N[C@@H]1C(=O)N2C(C(=O)[O-])=C(C[N+]3(C)CCCC3)CS[C@H]12)c1csc(N)n1 [Cefepime] + COc1ccc(C[C@H](N)C(=O)N[C@H]2[C@@H](O)[C@H](n3cnc4c(N(C)C)ncnc43)O[C@@H]2CO)cc1 [Puromycin]
fitness [1, 18]: 0.867
fitness [1, 19]: ≥ 1
fitness [1, 20]: 0.965
fitness ([1]; first compound 0.125 µg/mL, partner 3.12 µg/mL, one replicate): 0.956
fitness ([1]; first compound 0.125 µg/mL, partner 6.24 µg/mL, one replicate): 0.781
fitness [1, 21]: 0.932
fitness [1, 22]: 0.951
fitness [1, 23]: 0.924
fitness ([1]; first compound 0.25 µg/mL, partner 3.12 µg/mL, one replicate): 0.911
fitness ([1]; first compound 0.25 µg/mL, partner 6.24 µg/mL, one replicate): 0.857
fitness [1, 24]: 0.952
fitness [1, 25]: 0.907
fitness ([1]; first compound 0.5 µg/mL, partner 3.12 µg/mL, one replicate): 0.871
fitness ([1]; first compound 0.5 µg/mL, partner 6.24 µg/mL, one replicate): 0.716
fitness [2, 18]: 0.898
fitness [2, 19]: 0.94
fitness [2, 20]: 0.9
fitness [2, 21]: 0.831
fitness [2, 22]: 0.865
fitness [2, 23]: 0.865
fitness ([2]; first compound 0.5 µg/mL, partner 0.39 µg/mL): 0.728
fitness [2, 24]: 0.764
fitness [2, 25]: 0.775
fitness ([3]; first compound 0.007 µg/mL, partner 1 µg/mL): ≥ 1
fitness ([3]; first compound 0.007 µg/mL, partner 2 µg/mL): 0.993
fitness ([3]; first compound 0.007 µg/mL, partner 4 µg/mL): 0.873
fitness ([3]; first compound 0.0078 µg/mL, partner 1 µg/mL, one replicate): 0.979
fitness ([3]; first compound 0.0078 µg/mL, partner 2 µg/mL, one replicate): 0.927
fitness ([3]; first compound 0.0078 µg/mL, partner 4 µg/mL, one replicate): 0.868
fitness ([3]; first compound 0.014 µg/mL, partner 1 µg/mL): ≥ 1
fitness ([3]; first compound 0.014 µg/mL, partner 2 µg/mL): ≥ 1
fitness ([3]; first compound 0.014 µg/mL, partner 4 µg/mL): 0.876
fitness ([3]; first compound 0.0155 µg/mL, partner 1 µg/mL, one replicate): 0.896
fitness ([3]; first compound 0.0155 µg/mL, partner 2 µg/mL, one replicate): 0.881
fitness ([3]; first compound 0.0155 µg/mL, partner 4 µg/mL, one replicate): 0.845
fitness ([3]; first compound 0.028 µg/mL, partner 1 µg/mL): 0.961
fitness ([3]; first compound 0.028 µg/mL, partner 2 µg/mL): 0.944
fitness ([3]; first compound 0.028 µg/mL, partner 4 µg/mL): 0.771
fitness ([3]; first compound 0.031 µg/mL, partner 1 µg/mL, one replicate): 0.42
fitness ([3]; first compound 0.031 µg/mL, partner 2 µg/mL, one replicate): 0.449
fitness ([3]; first compound 0.031 µg/mL, partner 4 µg/mL, one replicate): 0.314
Bliss interaction score [4]: 0.0941
Bliss interaction score [5]: 0.0605
Bliss interaction score [6]: -0.0741
Bliss interaction score [7]: 0.132
